Structures are written as SMILES. Some results are limits rather than exact numbers.

Broadly, the IC50 is the concentration that inhibits the measured activity by half. Lower therefore signals higher potency.

This assay concerns the target T1, Human ADA (Homo sapiens, UniProt P00813).
T1 construct: made in house
T1 sequence (P00813 1-363): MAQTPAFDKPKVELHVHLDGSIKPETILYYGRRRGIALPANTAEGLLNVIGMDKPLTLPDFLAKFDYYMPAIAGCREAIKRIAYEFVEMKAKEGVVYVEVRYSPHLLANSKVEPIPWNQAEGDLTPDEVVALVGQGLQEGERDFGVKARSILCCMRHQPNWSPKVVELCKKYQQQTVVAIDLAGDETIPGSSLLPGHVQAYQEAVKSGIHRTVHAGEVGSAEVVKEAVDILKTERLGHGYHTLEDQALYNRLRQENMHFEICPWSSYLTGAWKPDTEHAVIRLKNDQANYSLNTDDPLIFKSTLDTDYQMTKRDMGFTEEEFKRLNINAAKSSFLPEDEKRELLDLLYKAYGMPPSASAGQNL
The experiment in a line: Adenosine Deaminase (ADA) Enzyme Assay. In kind it is biochemical. The settings on record: 50% inhibition of Vmax vs vehicle; 0.16 μg/ml ADA, 0.1 mM adenosine, phosphate buffer saline pH 7.4, room temperature, decrease in A265 for 3 minutes. As to the method: Adenosine Deaminase (ADA) Enzyme Assay
• 1-{(2S,3R)-2-hydroxy-5-[2-(3-(4-chlorophenyl)propoxy)-phenyl]-3-pentyl}imidazole-4-carboxamide (Example 8) • 1-[(2S,3R)-2-hydroxy-5-(7-chloro-1-naphthyl)-3-pentyl]-imidazole-4-carboxamide (Example 12) Test Method:
The reaction velocity (V) is measured by a change in absorbance at 265 nm (A265) resulting from the deamination of adenosine. Human ADA was expressed and purified from ADA-deficient bacterial strain. Reaction mixtures of a total volume of 200 μl contained 0.16 μg/ml of ADA and 0.1 mM of adenosine and test compound in 10 mM phosphate buffer saline (pH 7.4). The reaction was started by addition of ADA to a mixture of adenosine and test compound. The reaction was followed at room temperature by recording decrease in A265 for 3 minutes in SPECTRAmax 250 (Molecular Devices, USA) to automatically calculate Vmax. Inhibitory potency of test compound was expressed as IC50 value, the drug concentration required to produce 50% inhibition of Vmax in comparison to vehicle treatment.

In the case of `C[C@H](O)[C@@H](CCc1cccc2ccc(Cl)cc12)n1cnc(C(N)=O)c1` [Example 12, 1-[(2S,3R)-2-hydroxy-5-(7-chloro-1-naphthyl)-3-pentyl]imidazole-4-carboxamide], the IC50 is less than 20 nM. In turn, `C[C@H](O)[C@@H](CCc1ccccc1OCCCc1ccc(Cl)cc1)n1cnc(C(N)=O)c1` [Example 8, 1-{(2S,3R)-2-hydroxy-5-[2-(3-(4-chlorophenyl)propoxy)phenyl]-3-pentyl}imidazole-4-carboxamide] returned an IC50 of less than 20 nM.
